Among the data in ChEMBL document CHEMBL1944551, “An integrated computational workflow for efficient and quantitative modeling of renin inhibitors” (Bioorg Med Chem, 2012) are logP values, retold here.

The data set in a line: physchem. The note with it: octanol/buffer.
The logP is the decadic logarithm of the partition coefficient of the neutral form, usually between octanol and water. Low readings indicate lower lipophilicity, high ones higher lipophilicity. As to `COc1ccccc1COCCCOc1ccc(N2C(=O)CNC[C@@H]2C(=O)N(C)CCc2ccccc2)cc1`, the logP came to 3.9. As for `COc1ccccc1COCCCOc1ncc(N2C(=O)CNC[C@@H]2C(=O)N(C)CCc2ccccc2)cn1`, the logP was determined as 1.89. As for `CN(CCc1ccccc1)C(=O)[C@H]1CNCC(=O)N1c1ccc(CCCOc2cccc(Cl)c2)cc1`, the logP came to 4.75. For `CN(CCc1ccccc1)C(=O)[C@H]1CNCC(=O)N1c1ccc(CCCOc2c(F)ccc(F)c2F)cc1` the value was 4.57.

The compound `Cc1cc(Cl)c(OCCOc2ccc(N3C(=O)CNC[C@@H]3C(=O)N(C)CCCc3ccccc3)cc2)c(Cl)c1` showed a logP of 5.12.

Consider `COc1cccc(CN(C(=O)[C@H]2CNCC(=O)N2c2ccc(OCCCOCc3ccccc3)cc2)C2CC2)c1C`, for which the logP came to 4.76. The compound `COc1ccccc1COCCCOc1ccc(N2C(=O)CNC[C@@H]2C(=O)N(Cc2cccc(OC)c2C)C2CC2)cc1` came in with a logP of 4.72. For `COc1ccccc1COCCCOc1ncc(N2C(=O)CNC[C@@H]2C(=O)N(Cc2cccc(OC)c2C)C2CC2)cn1` the value was 2.71; for `COc1cccc(CN(C(=O)[C@H]2CNCC(=O)N2c2ccc(CCCOc3cccc(Cl)c3)cc2)C2CC2)c1C`, 5.56. For `COc1cccc(CN(C(=O)[C@H]2CNCC(=O)N2c2ccc(CCCOc3c(F)ccc(F)c3F)cc2)C2CC2)c1C` the value was 5.39; for `Cc1cc(Cl)c(OCCOc2ccc(N3C(=O)CNC[C@@H]3C(=O)N(Cc3cccc(Cl)c3Cl)C3CC3)cc2)c(Cl)c1`, 6.42. For `Cc1cc(Cl)c(OCCOc2ccc(N3C(=O)CNC[C@@H]3C(=O)N(Cc3cccc(Cl)c3Cl)C3CC3)cn2)c(Cl)c1` the value was 5.59. Consider `O=C(OCc1ccc(N2C(=O)CNC[C@@H]2C(=O)N(Cc2cccc(Cl)c2Cl)C2CC2)cc1)c1ccccc1`, for which the logP came to 5.32. For `O=C([C@H]1CNCC(=O)N1c1ccc(OCCCOCc2ccccc2)cc1)N(Cc1cccc(Cl)c1Cl)C1CC1` the value was 5.7. For `COc1ccccc1COCCCOc1ccc(N2C(=O)CNC[C@@H]2C(=O)N(Cc2cccc(Cl)c2Cl)C2CC2)cc1` the value was 5.65; for `COc1ccccc1COCCCOc1ncc(N2C(=O)CNC[C@@H]2C(=O)N(Cc2cccc(Cl)c2Cl)C2CC2)cn1`, 3.64; for `O=C([C@H]1CNCC(=O)N1c1ccc(CCCOc2cccc(Cl)c2)cc1)N(Cc1cccc(Cl)c1Cl)C1CC1`, 6.49.

In the case of `O=C([C@H]1CNCC(=O)N1c1ccc(CCCOc2c(F)ccc(F)c2F)cc1)N(Cc1cccc(Cl)c1Cl)C1CC1`, the logP worked out at 6.32.

`Cc1cc(Cl)c(OCCOc2ccc(N3C(=O)CNC[C@@H]3C(=O)NCc3ccccc3)cc2)c(Cl)c1` returned a logP of 4.39.

`Cc1cc(Cl)c(OCCOc2ccc(N3C(=O)CNC[C@@H]3C(=O)NCc3ccccc3)cn2)c(Cl)c1` came in with a logP of 3.56. For `O=C(OCc1ccc(N2C(=O)CNC[C@@H]2C(=O)NCc2ccccc2)cc1)c1ccccc1` the value was 3.29.

Take `O=C(NCc1ccccc1)[C@H]1CNCC(=O)N1c1ccc(OCCCOCc2ccccc2)cc1`: the logP was determined as 3.67. For `COc1ccccc1COCCCOc1ccc(N2C(=O)CNC[C@@H]2C(=O)NCc2ccccc2)cc1` the value was 3.62. For `COc1ccccc1COCCCOc1ncc(N2C(=O)CNC[C@@H]2C(=O)NCc2ccccc2)cn1` the value was 1.61; for `O=C(NCc1ccccc1)[C@H]1CNCC(=O)N1c1ccc(CCCOc2cccc(Cl)c2)cc1`, 4.46. For `O=C(NCc1ccccc1)[C@H]1CNCC(=O)N1c1ccc(CCCOc2c(F)ccc(F)c2F)cc1` the value was 4.29; for `Cc1cc(Cl)c(OCCOc2ccc(N3C(=O)CNC[C@@H]3C(=O)N(C)CCc3ccccc3)cc2)c(Cl)c1`, 4.68.

For the compound `Cc1cc(Cl)c(OCCOc2ccc(N3C(=O)CNC[C@@H]3C(=O)N(C)CCc3ccccc3)cn2)c(Cl)c1`, the logP is 3.85.

`CN(CCc1ccccc1)C(=O)[C@H]1CNCC(=O)N1c1ccc(COC(=O)c2ccccc2)cc1`: the logP worked out at 3.58.

`CN(CCc1ccccc1)C(=O)[C@H]1CNCC(=O)N1c1ccc(OCCCOCc2ccccc2)cc1` registered a logP of 3.95.
